In series [1] the test system is primary rat hepatocytes. In words: In vitro cytotoxicity study on primary rat hepatocytes (MTS). The series is classed as cell-based. The conditions noted are these: Hepatocyte, 20 hours treatment with 0.4, 2, 10 and 50 μM, absorbance at 490 nm, read-out: Average EC50 (hepatocytes from at least 2 rats). The method, then:
Male SD rats having body weights of approximately 200 g were used for the study. Hepatocytes were freshly isolated and seeded with 15,000 cells/well in 96 wells coated with 100 μl collagen. The hepatocytes were cultured for 3-4 hours with HCM Bulletkit medium (Clonetics #CC-3198) then treated with 0.4 μM, 2 μM, 10 μM and 50 μM of a test compound for 20 hours. Flepatocytes were then incubated with MTS reagent (Promega #G5421) for 2-3 hours and absorbance in each well at […] was measured to determine the number of living cells in each well (the absorbance at 490 nm is directly proportional to the number of living cells in the well). The EC50 for each test compound was calculated with the Excel Xlfit wizard program based on the optical density values compared with vehicle treated cells.

Series [2] has as its system Male SD rats. The conditions noted are these: rat, in vivo. The method, then: Male SD rats weighing 350-420 g were anesthetized with 2-3% isoflurane. The femoral artery and vein were catheterized and connected to a mean arterial blood pressure (MAP) and heart rate (HR) monitor and a continuous intravenous infusion pump. Under anesthesia, MAP and HR were recorded 10-20 minutes prior to and during the continuous intravenous infusion of test compounds for 60-70 minutes. The infusion rate, 0.14-0.16 ml/kg/minute, was determined on the basis of vehicle tolerance. The infusion doses, 1.0-1.25 mg/kg/minute, were selected, depending upon the solubility of the compound and effects on MAP and HR of the positive control compounds at the lethal dose. The maximal effective dose or lethal dose of test compounds were determined accordingly.

Series [3] relates to male ob/ob mice. The experiment in a line: Oral glucose tolerance test in glucose-loaded ob/ob mice (Example 114, FIG. 1). The series is classed as in vivo, mouse. The protocol: Blood glucose was measured at 0, 30, 120 and 240 min post-glucose loading. Metformin and rosiglitazone were used as references.
In series [4] the test system is C57BLKS/J-m+/+Lepr db. In words: Glucose reduction, Compound 36 in combination with rosiglitazone, db/db mice, 6 days (Example 117). The conditions noted are these: for Serum Glucose % Normalized Reduction: relative to vehicle. The series is classed as in vivo, mouse. The method, then:
C57BLKS/J-m+/+Lepr db were obtained from the Institute for Animal Reproduction (IAR, Japan), and randomized for equivalent mean blood glucose on day 0 (n=8/group). One group served as the vehicle control (0.5% methyl cellulose). […] Group 3 received 0.5 mg/kg rosiglitazone. […] All agents were administered once daily for 6 consecutive days starting on day 1. […] Post-treatment serum glucose value was expressed as percent pre-treatment from respective pre-treatment values, and percent reduction relative to vehicle control was calculated by subtracting from the percent pre-treatment of vehicle control.

The test system of series [5] is NIDDM male mice (C57BLKS/J-m+/+Lepr db). In words: 7 day baseline glucose test in db/db mice (Example 119). The series is classed as in vivo, mouse. The conditions noted are these: for Serum Glucose % Pre-Treatment Baseline: 3 hours after dose. The method, then: Non-insulin dependent diabetic mellitus (NIDDM) male mice (C57BLKS/J-m+/+Lepr db), weighing 50±5 g and 9-10-week old, were used. The animals were housed in Individually Ventilated Cages Racks (IVC Racks) throughout the experiment and all animals were allowed free access to sterilized Lab chow and sterilized distilled water. Compounds 39, 41 and 64 at 50 mg/kg as well as vehicle (0.5% Methylcellulose) were administered orally once daily for 7 consecutive days to test animals after the first blood sampling (pre-treatment). The post-treatment blood samples were withdrawn from the orbital sinus at 3 hours after administration of daily dose on day 3 and on day 7. Serum glucose levels in the pre- and post-treatment were determined by enzymatic (Mutaratase-GOD) methods. Post-treatment serum glucose values were expressed in percentage of respective pre-treatment values. Percentage reductions were expressed in percentage of pre-treatment values of test substance relative to percentage of pre-treatment values of vehicle. All percentages were calculated and unpaired; Student's t test was then applied to establish significant difference between the test compound-treated and vehicle control groups. Differences are considered significant at P<0.05.

Series [6] deals with male db/db mice (BKS.Cg-m+/+Lepr db/J). In words: Intraperitoneal glucose tolerance test (IPGTT) in db/db mice (Example 122, FIGS. 3 and 5). The series is classed as in vivo, mouse. As to conditions: Mus musculus, po, 0.75 h, read-out: Ave. % Change in Glucose Intolerance at +45 min.
Method: Six to eight week old, male db/db mice (BKS.Cg-m+/+Lepr^db/J; stock number 000642), homozygous for a mutation in the gene encoding the leptin receptor, were purchased from The Jackson Laboratory (Bar Harbor, Me. USA). Animals were singly housed in conventional caging on a 12 hr/12 hr light/dark cycle, acclimated for at least five days prior to use and fed normal laboratory chow ad libitum between experiments. Studies were conducted with animals between seven and fourteen weeks of age. Animals were used for a maximum of five consecutive studies, with a minimum recovery period of five days between studies.
To perform an IPGTT or OGTT, db/db mice were fasted overnight beginning on day 0 at −17.5 to −18.5 hrs relative to the glucose dose on day 1 (all time points below are stated relative to the time of an intraperitoneal or oral glucose dose on day 1). At −4.5 hrs, animals were weighed, blood was collected by tail vein lancing and fasted blood glucose levels determined using a hand-held glucometer (MediSense Precision Xtra or LifeScan OneTouch Ultra). Animals were randomized into dosing groups of 6-7 animals, with each group having a similar average fasted blood glucose level. At −3 hr, animals were dosed with vehicle alone, a test compound or metformin by oral gavage at 5 ml/kg body weight. […] Blood glucose levels were determined as above at −45 min and +45 min, and also +90 min and/or +150 min (see FIG. 3 and the Table in this section). Alternatively, blood glucose levels were determined at −30 min, +30 min, +60 min and +120 min (see FIGS. 4 and 5).
Compound doses were adjusted to be the molar equivalents of 50 mg/kg of Compound 39. The percent change in blood glucose between −45 min and a time point, y, after glucose dosing (e.g., +45 min, +150 min, ect.) was calculated for each animal using formula 1: [formula]
The percent change in blood glucose between −45 min and a time point, y, after glucose dosing was calculated for each animal using formula 1.
Average percent change in glucose intolerance was calculated using Formula 2, as noted in the table below. […]
The subject of series [7] is db/db mice. In words: Combination studies of rosiglitazone or metformin with Compound 39, 7 days (Example 121). The series is classed as in vivo, mouse. The protocol:
Serum glucose levels in the pre-and post-treatment were determined enzymatically (Mutaratase-GOD). Post-treatment serum glucose values were expressed in percentage of respective pre-treatment values. Percentage reductions were expressed in percentage of pre-treatment values of test substance relative to percentage of respective pre-treatment values of vehicle. All percentages were calculated and unpaired; Student's t test was then applied to establish significant difference between the test compound-treated and vehicle control groups. Differences are considered significant at P<0.05.

Where [8] appears, read: Day 3, 50 mg/kg orally once daily.
Where [9] appears, read: Day 7, 50 mg/kg orally once daily.
The mark [10] stands for this setting: Day 3, metformin 150 mg/kg orally daily.
The mark [11] stands for this setting: Day 7, metformin 150 mg/kg orally daily.
The mark [12] stands for this setting: Day 3, rosiglitazone 0.5 mg/kg orally daily.
Where [13] appears, read: Day 7, rosiglitazone 0.5 mg/kg orally daily.

As to `CCOC(=O)C1=C(COCCN)NC2=C(C(=O)CC(C)(C)C2)[C@H]1c1cccnc1` [39 R-enantiomer, (+)-(R)-2-(2-Amino-ethoxymethyl)-7,7-dimethyl-5-oxo-4-pyridin-3-yl-1,4,5,6,7,8-hexahydro-quinoline-3-carboxylic acid ethyl ester], in series [1], the 50% effective concentration (EC50) was over 50 µM.
As to `CCOC(=O)C1=C(COCCN)NC(C)=C(C(=O)OC)C1c1ccccc1Cl` (stereo not shown) [Amlodipine, amlodipine, reference compound], the “Lethal Dose” value in series [2] is given as “˜12.7 mg/kg”.
With `CCOC(=O)C1=C(COCCN)NC2=C(C(=O)CC(C)(C)C2)C1c1ccccc1F` (stereo not shown) [Compound 12, 2-(2-amino-ethoxymethyl)-4-(2-fluoro-phenyl)-7,7-dimethyl-5-oxo-1,4,5,6,7,8-hexahydro-quinoline-3-carboxylic acid ethyl ester], in series [1], the concentration for a half-maximal effect (EC50) was over 50 µM.
On the same count and under the same terms, to `CCOC(=O)C1=C(COCCN)NC2=C(C(=O)CC(C)(C)C2)C1c1ccccc1OC` (stereo not shown) [Compound 16, 2-(2-Amino-ethoxymethyl)-4-(2-methoxy-phenyl)-7,7-dimethyl-5-oxo-1,4,5,6,7,8-hexahydro-quinoline-3-carboxylic acid ethyl ester] belongs over 50 µM.
As for `CCOC(=O)C1=C(COCCN)NC2=C(C(=O)CC(C)(C)C2)[C@@H]1c1ccccc1Cl` [Compound 36, S-(−)-2-(2-amino-ethoxymethyl)-4-(2-chloro-phenyl)-7,7-dimethyl-5-oxo-1,4,5,6,7,8-hexahydro-quinoline-3-carboxylic acid ethyl ester; complex with benzenesulfonic acid], the “blood glucose after oral glucose loading” value in series [3] (25 mg/kg orally, glucose 3 g/kg, fasted ob/ob mice) is recorded as “approximately 200 mg/dl”. Besides, the “Serum Glucose % Pre-Treatment Baseline” value worked out at 103.0 ± 2.4% in series [4] (Day 3, Compound 36 10 mg/kg); 100.3 ± 2.8% in series [4] (Day 3, Compound 36 25 mg/kg); 100.7 ± 4.6% in series [4] (Day 6, Compound 36 10 mg/kg); 99.7 ± 5.4% in series [4] (Day 6, Compound 36 25 mg/kg). The “Serum Glucose % Normalized Reduction” value was “(2.6) %” in series [4] (Day 3, Compound 36 10 mg/kg); “(5.3) %” in series [4] (Day 3, Compound 36 25 mg/kg); “(7.2) %” in series [4] (Day 6, Compound 36 10 mg/kg); “(8.2) %” in series [4] (Day 6, Compound 36 25 mg/kg).
Take `CC1(C)CC(=O)C2=C(C1)NC(COCCN)=C(C#N)C2c1ccccc1Cl` (stereo not shown) [Compound 41, 2-(2-Amino-ethoxymethyl)-4-(2-chloro-phenyl)-7,7-dimethyl-5-oxo-1,4,5,6,7,8-hexahydro-quinoline-3-carbonitrile]: in series [5] (setting [8]), the “serum glucose % Reduction relative to vehicle” value is on record as “(2) %” and the “Serum Glucose % Pre-Treatment Baseline” value is given as 93.3%. In addition, in series [5] (setting [9]), the “serum glucose % Reduction relative to vehicle” value is reported as “(6) %” and the “Serum Glucose % Pre-Treatment Baseline” value stood at 94.1%.
On to `CCOC(=O)C1=C(COCCN)NC2=C(C(=O)CC(C)(C)C2)C1c1ccccc1O` (stereo not shown) [Compound 64, 2-(2-Amino-ethoxymethyl)-4-(2-hydroxy-phenyl)-7,7-dimethyl-5-oxo-1,4,5,6,7,8-hexahydro-quinoline-3-carboxylic acid ethyl ester], for which, in series [5] (setting [8]), the “serum glucose % Reduction relative to vehicle” value is recorded as “(10) %” and the “Serum Glucose % Pre-Treatment Baseline” value worked out at 85.9%. Also, in series [5] (setting [9]), the “serum glucose % Reduction relative to vehicle” value is “(12) %” and the “Serum Glucose % Pre-Treatment Baseline” value is reported as 88.6%. Further, the 50% effective concentration (EC50) in series [1] is over 50 µM.
For `CCOC(=O)C1=C(COCCN)N(C)C2=C(C(=O)CC(C)(C)C2)C1c1cccnc1` (stereo not shown) [Compound 66, 2-(2-Amino-ethoxymethyl)-1,7,7-trimethyl-5-oxo-4-pyridin-3-yl-1,4,5,6,7,8-hexahydro-quinoline-3-carboxylic acid ethyl ester], the EC50 in series [1] is over 50 µM.
For the compound `CCOC(=O)C1=C(COCCN)NC2=C(C(=O)CC(C)(C)C2)C1c1ccco1` (stereo not shown) [Compound 96, 2-(2-Amino-ethoxymethyl)-4-furan-2-yl-7,7-dimethyl-5-oxo-1,4,5,6,7,8-hexahydro-quinoline-3-carboxylic acid ethyl ester], in series [1], the EC50 is over 50 µM.
Same read-out and setting: the same measure for `CCOC(=O)C1=C(C)NC2=C(C(=O)CC(C)(C)C2)C1c1cccnc1` (stereo not shown) [Compound 202, 2,7,7-Trimethyl-4-(pyrid-3-yl)-5-oxo-1,4,5,6,7,8-hexahydro-quinoline-3-carboxylic acid ethyl ester]: over 50 µM; for `CCOC(=O)C1=C(COCCN)NC2=C(C(=O)CC(C)(C)C2)C1c1ccc(C)o1` (stereo not shown) [Compound 206, 2-(2-Amino-ethoxymethyl)-7,7-dimethyl-4-(5-methyl-furan-2-yl)-5-oxo-1,4,5,6,7,8-hexahydro-quinoline-3-carboxylic acid ethyl ester]: over 50 µM.
Still for that read-out and setting: to `CC1=C(C#N)C(C2CC2)C2=C(CC(C)(C)CC2=O)N1` (stereo not shown) [Compound 222, 2,7,7-Trimethyl-4-cyclopropyl-5-oxo-1,4,5,6,7,8-hexahydro-quinoline-3-carbonitrile] belongs over 50 µM.
Regarding `CN(C)C(=N)N=C(N)N` [metformin], the “blood glucose after oral glucose loading” value in series [3] (metformin 100 mg/kg (FIG. 1), glucose 3 g/kg, fasted ob/ob mice) is reported as “approximately 200 mg/dl”. Further, the change in vivo at 150 mg/kg in series [6] was -48.7%. Besides, in series [7] (setting [10]), the “Serum Glucose % Pre-Treatment Baseline” value was determined as 68.5 ± 3.7% and the “serum glucose % Reduction relative to vehicle” value is “(26.4) %”. In series [7] (setting [11]), the “Serum Glucose % Pre-Treatment Baseline” value worked out at 72.2 ± 5.7% and the “serum glucose % Reduction relative to vehicle” value is recorded as “(28.7) %”.
`CN(CCOc1ccc(CC2SC(=O)NC2=O)cc1)c1ccccn1` (stereo not shown) [rosiglitazone, reference compound]: the “blood glucose after oral glucose loading” value in series [3] (rosiglitazone 1 mg/kg (FIG. 1), 4 hours post-glucose loading) was about 300 mg/dL. The “Serum Glucose % Pre-Treatment Baseline” value was determined as 72.2 ± 6.5% in series [7] (setting [12]); 61.2 ± 6.6% in series [7] (setting [13]); 90.3 ± 3.1% in series [4] (Day 3, rosiglitazone 0.5 mg/kg); 79.1 ± 1.9% in series [4] (Day 6, rosiglitazone 0.5 mg/kg). Moreover, the “serum glucose % Reduction relative to vehicle” value in series [7] (setting [12]) is given as “(22.4) %”; in series [7] (setting [13]) it was “(39.5) %”. The “Serum Glucose % Normalized Reduction” value in series [4] (Day 3, rosiglitazone 0.5 mg/kg) is reported as “(15.3) %”; in series [4] (Day 6, rosiglitazone 0.5 mg/kg) it was 28.8%; in series [4] (Day 6, rosiglitazone 0.5 mg/kg, listed as Rosiglitazone), “(28.8) %”.

The values are drawn from patent US20050203119A1, “Dihydropyridine compounds for treating or preventing metabolic disorders” (priority 2003, published 2005).
